What was measured:
Jurkat T-cells = assay: Apoptosis in anti-CD3-treated Jurkat T-cells; assay type: cell-based, human
Procedure: A 24-hr incubation of Jurkat T-cells with SV40MEM and anti-CD3, caused greater than 85% of the cells to apoptose.

[1] = system: THP-1 human monocytic cells; assay: LPS-stimulated cytokine (TNF-α, IL-8) production in THP-1 cells; assay type: cell-based; conditions: 5 μM or 10 μM, 2 hr preincubation, 5 hr LPS stimulation, FIG. 2
Procedure: Amounts of TNF-α, IL-6, IL-8 and IL-10 were determined using the ELISA kits obtained from Genzyme following the manufacturer's instructions.
THP-1 control cells were harvested, washed and set up in RPMI 1640, 10% fetal calf serum, at a concentration of 2.56×10^6 cells/ml. Phosphate buffered saline ("PBS") or one of the two respective polypeptides SV40MEM or SV40 (a peptide having only the SV40 large T antigen NLS sequence) were added to the cells at a concentration of 10 μM or 20 μM. The cells were then plated into a 96-well plate with 0.1 ml/well. The plate was then incubated for 2 hr at 37° C. in a 5% CO2 atmosphere. Following the initial incubation, media or a titration of LPS was added to each of the wells in a volume of 0.1 ml. Thus, the final concentrations of polypeptides were 5 μM or 10 μM. Following 5 hr of LPS stimulation, supernatants were taken and TNF-α and IL-8 levels were determined by ELISA. In addition, cells treated with PBS or polypeptides, but not incubated with LPS, were removed at the time of supernatant removal to determine the viability of the cells following 7 hr of contact with the polypeptides.
This experiment was conducted to compare the inhibitory effect of the SV40MEM polypeptide and other inhibitory polypeptides on LPS induction of cytokine production. THP-1 control cells (ATCC 9/95 stock) were harvested, washed and set up in RPMI 1640, 10% fetal calf serum as described in Example 2. The cells were incubated for 2 hr with PBS or (1) the FGF signal sequence, (2) a polypeptide having the FGF signal sequence and the NLS of NF-κB p50 on the carboxy terminus of the signal sequence, (3) the SV40MEM polypeptide comprised of L-amino acids, or (4) the SV40MEM polypeptide comprised of D-amino acids at a final concentration of 5 μM. The cells were then plated into a 96-well plate with 0.1 ml/well. The plate was then incubated for 2 hr at 37° C. in a 5% CO2 atmosphere. Following the initial incubation, media or a titration of LPS was added to each of the wells in a volume of 0.01 ml/well. Following 5 hr of LPS stimulation, supernatants were taken and TNF-α levels were determined by ELISA.

HIVLAI in Jurkat cells = assay: Nuclear translocation of HIV genome in Jurkat cells infected with HIVLAI (gag and 2-LTR circle PCR); assay type: cell-based, HIV-1; conditions: SV40MEM 0.1 and 1.0 μM; NF-κBMEM 10 μM; 24 hr, FIG. 8B
Procedure: HIV-1 M1 p24 levels were assayed using the procedures described in Smithgall et al (1995) AIDS Res. and Human Retrovirus 11:885. Proviral DNA content (gag) was measured using polymerase chain reaction analysis as described in Smithgall et al. (1995), supra.
2-LTR circles, a strictly nuclear form of HIV-1 DNA the expression of which indicates nuclear localization of the viral genome, was measured by as described in Bukrinsky et al (1991) Science 254:423.
Jurkat cells were incubated with the SV40MEM polypeptide for 3 hr with HIVLAI for 1-2 hr. The virus was washed out and the cultures supplemented with the appropriate inhibitor (SV40MEM, 0.1,μM and 1.0 μM; NF-κBMEM, 10 μM). After 24 hr, the cells were collected, lysed and evaluated for HIV-1 DNA by polymerase chain reaction analysis of gag sequences (see FIG. 8A) and 2-LTR circles (see FIG. 8B).

[2] = system: BALB/c mice immunized with sheep red blood cells; assay: Murine sheep red blood cell assay (anti-SRBC antibody response); assay type: in vivo
Procedure: Female BALB/c mice (6-8 weeks of age) were housed in groups of 5 in Thorne units with ad libitum access to food and water. Mice were immunized on day 0 by intravenous (IV) injection of 1×10^8 sheep red blood cells ("SRBCs"). The mice were then divided into groups of five and control solutions or inhibitory peptides were administered at various doses, either by IV injection or orally ("PO") by gavage with a 24-gauge feeding tube and routes.
The SV40MEM polypeptide was administered either intravenously (IV) or orally (PO) with the following schedule: IV administration of 5 mg/kg on days 0, 1, 2, and 3; PO administration of 1 mg/kg on days 0, 1, 2, 3, and 4. After 14 days, the mice were bled from the orbital sinus and the level of anti-SRBC antibodies were measured in the serum by ELISA. Briefly, Immulon 2 plates (Dynatech) were coated with SRBC membrane antigen (Anal. Biochem. 82:362-371 (1978)) at 5 μg/ml in 0.05 M carbonate/bicarbonate buffer (pH 9.6) and incubated overnight at 2-8° C. Plates were blocked for 1-hr at room temperature with Specimen Diluent Concentrate (Genetic Systems, Redmond, Wash.) diluted 1:10 with distilled water. The plates were washed in phosphate-buffered saline and 0.05% Tween-20 ("PBS/Tween"). Serum samples were diluted in Specimen Diluent and incubated for 1 hr at room temperature. After washing the plates in PBS/Tween, goat anti-mouse IgG1-horse radish peroxidase-conjugated ("IgG1-HRP") antibody (Southern Biotechnology, Birmingham Ala.) was added at 1:5000 dilution and incubated for 1 hr at room temperature. Plates were washed and conjugate binding was detected using 3,3',5,5'-tetramethylbenzidine ("TMB") (Genetic Systems) as the substrate. TMB was added and incubated for 15 min at room temperature. The reaction was stopped by the addition of 3 N H2 SO4. Absorbance at […] was recorded from duplicate samples using a microtiter plate reader (Bio Tek Instruments).

IκB = IκB degradation in LPS-activated 70Z/3 cells (Western analysis); assay type: cell-based, murine; conditions: 2 μM, LPS 100 ng/ml for 0-120 min
Procedure: IκB is an inhibitor of NF-κB nuclear translocation. When cells are activated by the appropriate proinflammatory stimulus, e.g., cytokines or LPS, IκB is degraded. […] This experiment was done to explore the effect of the SV40MEM polypeptide on IKB degradation in murine 70Z/3 cells.
Murine 70Z/3 cells (5×10^7 cells) were incubated with the SV40MEM polypeptide (2 μM) or PBS. The two groups of cells were subdivided into aliquots and activated with LPS (100 ng/ml) for 0, 15, 30, 60, or 120 min. The cells were lysed in 200 μL lysing buffer (20 mM N-(2-hydroxyethyl)piperazine-N'-(2-ethanesulfonic acid) ("HEPES"), pH 7.2, 20 mM NaCl, 2.5 mM MgCI2, 0.1% nonylphenoxy polyethoxy ethanol ("NP-40")). The lysates were frozen until analyzed for the presence of IκB by Western analysis using an antibody directed to the carboxy terminus of IκB (Santa Cruz Corp., Santa Cruz, Calif.) according to the manufacturer's instructions.

[3] = IV 5 mg/kg days 0-3, serum day 14, FIG. 11A
[4] = PO 1 mg/kg days 0-4, serum day 14, FIG. 11B

Sequence: PKKKRKVAAVALLPAVLLALLAPKKKRKVC [SV40MEM, FGF signal peptide hydrophobic region flanked by SV40 large T antigen NLS]
- cells undergoing apoptosis (Jurkat T-cells; 24-hr incubation with SV40MEM and anti-CD3): greater than 85%
- apoptosis (Jurkat T-cells; SV40MEM alone, without anti-CD3): Neither SV40MEM nor anti-CD3 alone caused significant apoptosis
- TNF-α production [1]: inhibited TNF-α production in a dose-dependent manner
- translocation of the viral genome into the nucleus (2-LTR circles) (HIVLAI in Jurkat cells): inhibited translocation of the viral genome into the nucleus
- specific anti-SRBC response [2, 3]: inhibited
- total IgG levels [2, 3]: no effect
- specific anti-SRBC response [2, 4]: inhibited
- total IgG levels [2, 4]: no effect
- degradation of IκB (IκB): no apparent degradation of IκB

Source: patent publication US5962415A, “Compositions comprising a peptide inhibitor of nuclear protein translocation and an immunosuppressant and methods of use thereof” (Bristol-Myers Squibb Co., priority 1998, dated 1999)
